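Cultured in 96-well plates, cells were exposed to test compound for 48 hours across five concentrations. TGI denotes the concentration required for complete inhibition of growth.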
Tests used:
Experiment in all cases: DTP human tumour cell line panel, 48 h
XF 498 CNS = test system: XF 498 CNS
SNB-78 CNS = test system: SNB-78 CNS
HOP-18 NSCLC = test system: HOP-18 NSCLC
DMS 114 small cell lung = test system: DMS 114 small cell lung
LXFL 529 NSCLC = test system: LXFL 529 NSCLC
RXF-631 renal = test system: RXF-631 renal

Compound | TGI (XF 498 CNS) | TGI (SNB-78 CNS) | TGI (HOP-18 NSCLC) | TGI (DMS 114 small cell lung) | TGI (LXFL 529 NSCLC) | TGI (RXF-631 renal)
C=C1C(=O)OC2(C)C3CCC(C3)C12 (centres undefined) | 97.9 µM | > 100 µM | > 100 µM | > 100 µM |  | 
Cn1ccn2c3nc4ccccc4nc3c(=O)c(C#N)c12 | > 100 µM | > 100 µM | > 100 µM | > 100 µM | > 100 µM | 
O=C(O)CCCCCOc1cccnc1/C=N/NC1=NCCN1 | > 100 µM | > 100 µM | > 100 µM |  | > 100 µM | 
CCCCCC(=O)c1ccc2[nH]c3c(C)cc([N+](=O)[O-])c(C)c3c2c1 | > 100 µM | > 100 µM |  | > 100 µM |  | 
COc1ccccc1-c1cc(=O)c2ccccc2[nH]1 |  | > 100 µM |  |  | > 100 µM | 
COC1=C(N=[N+]=[N-])C(=O)c2ncccc2C1=O | 16.4 µM | 12.7 µM |  | 19.6 µM | 3.15 µM | 29.9 µM
N=c1nnc(=O)c2c(s1)-n1ncc(C(=O)O)c1NN2 |  |  | > 100 µM | > 100 µM | > 100 µM | 
O=C1CSC(/C(=C\c2ccc(Cl)cc2)c2nc3ccccc3[nH]2)=N1 | 3.01 µM | > 100 µM |  |  | 35.2 µM | 
CCOc1ccc(/C=C(\Cl)c2ccc(OC)c(OC)c2)cc1 | > 100 µM | > 100 µM | > 100 µM | > 100 µM | > 100 µM | 
O=C1O/C(=C(\Br)c2cccc3ccccc23)c2ccccc21 |  | > 100 µM | 36.4 µM | > 48.4 µM | > 62.7 µM | 
CCCCCCCC(=O)OC(CBr)COC(=O)C(C)(C)C (centres undefined) | > 100 µM | > 100 µM | > 100 µM | > 100 µM | > 100 µM | > 100 µM
O=C(Nc1nc2ccccc2n1Cc1ccccc1)NC12CC3CC(CC(C3)C1)C2 | 73.8 µM | 49.1 µM | > 100 µM | > 100 µM | > 100 µM | 

Reference: PubChem BioAssay (NCI)
